Patent publication US5260257A, “Thermal transfer sheet” (Dai Nippon Printing Co., Ltd., priority 1991, dated 1993)

Experiment: light fastness test (xenon fadeometer, percentage fading)
Format: physicochemical
Details: Table A2, dyes of Table A1, 50° C., 70 kJ/m^2
Procedure: The light fastness test was conducted as follows.
Irradiation was conducted by means of a xenon fadeometer Ci35A (manufactured by Atlas) under conditions of a black panel temperature of 50° C. and an integrating irradiation energy of 70 kJ/m^2.
The percentage fading was determined from a density change around an initial density of 1.0 according to the following equation.
Percentage fading=(1-I/I0)×100 (%)
I=optical density after irradiation; and
I0 =optical density before irradiation.
.largecircle.: less than 20% in the percentage fading
X : 20% or more in the percentage fading

| Structure (SMILES) | Light fastness |
| --- | --- |
| CCN(CC)c1ccc(N=C2C=C(NC(=O)C3CC3)C(=O)C=C2NC(C)=O)c(C)c1 [compound 3] | .largecircle. (less than 20% in the percentage fading) |
| CCN(CC)c1ccc(N=C2C=C(NC(=O)c3ccsc3)C(=O)C=C2NC(C)=O)c(C)c1 [compound 21] | .largecircle. (less than 20% in the percentage fading) |
| CCN(CCO)c1ccc(N=C2C=C(NC(=O)C3CC3)C(=O)C(Cl)=C2C)c(C)c1 [compound 2] | .largecircle. (less than 20% in the percentage fading) |
| CCN(CC)c1ccc(N=C2C=C(NC(=O)C3CC3)C(=O)C(Cl)=C2C)c(C)c1 [compound 1] | .largecircle. (less than 20% in the percentage fading) |
| CCOc1cc(N(CC)CC)ccc1N=C1C=CC(=O)C(NC(=O)C2CC2)=C1 [compound 4] | .largecircle. (less than 20% in the percentage fading) |
| CCN(CCO)c1ccc(N=C2C=C(NC(=O)C3CC3)C(=O)C=C2NC(C)=O)c(NS(C)(=O)=O)c1 [compound 10] | .largecircle. (less than 20% in the percentage fading) |
| CCN(CC)c1ccc(N=C2C=CC(=O)C(NC(=O)C3CC3)=C2)c(NC(C)=O)c1 [compound 9] | .largecircle. (less than 20% in the percentage fading) |
| CCCCC1CC(C(=O)NC2=CC(=Nc3ccc(N(CC)CC)cc3C)C(C)=C(Cl)C2=O)C1 (centres unmarked) [compound 12] | .largecircle. (less than 20% in the percentage fading) |
| CCN(CC)c1ccc(N=C2C=C(NC(=O)c3ccsc3)C(=O)C(Cl)=C2C)c(C)c1 [compound 19] | .largecircle. (less than 20% in the percentage fading) |
| CCOc1cc(N(CC)Cc2ccccc2)ccc1N=C1C=C(NC(=O)C2CC2)C(=O)C=C1NC(C)=O [compound 5] | .largecircle. (less than 20% in the percentage fading) |
| CCN(CCOC)c1ccc(N=C2C=C(NC(=O)c3ccsc3)C(=O)C(Cl)=C2C)c(NC(C)=O)c1 [compound 22] | .largecircle. (less than 20% in the percentage fading) |
| CCN(CC)c1ccc(N=C2C=C(NC(=O)c3ccsc3)C(=O)C(Cl)=C2C)c(NC(C)=O)c1 [compound 20] | .largecircle. (less than 20% in the percentage fading) |
| CCN(CC)c1ccc(N=C2C=C(NC(=O)C3CC3)C(=O)C(Cl)=C2C)cc1 [compound 11] | .largecircle. (less than 20% in the percentage fading) |
| CCN(Cc1ccccc1)c1ccc(N=C2C=C(NC(=O)C3CCCC3)C(=O)C=C2NC(C)=O)c(C)c1 [compound 13] | .largecircle. (less than 20% in the percentage fading) |
| CCN(CC)c1ccc(N=C2C=C(NC(=O)C3CCCC3)C(=O)C(Cl)=C2C)c(C)c1 [compound 15] | .largecircle. (less than 20% in the percentage fading) |

Same assay, conditions: Table A3, Comparative Examples A1-A6, 50° C., 70 kJ/m^2

| Structure (SMILES) | Light fastness |
| --- | --- |
| CC(C)Nc1ccc(NC(C)C)c2c1C(=O)c1ccccc1C2=O [Comp. Ex. A2, C.I. Disperse Blue 134, reference compound] | Δ |
| CNc1ccc(Nc2cccc(C)c2)c2c1C(=O)c1ccccc1C2=O [Comp. Ex. A3, C.I. Solvent Blue 63, reference compound] | Δ |
| CNc1ccc(NC)c2c1C(=O)c1ccccc1C2=O [Comp. Ex. A1, C.I. Disperse Blue 14, reference compound] | Δ |
| CNc1ccc(N)c2c1C(=O)c1ccccc1C2=O [Comp. Ex. A5, C.I. Disperse Violet 4, reference compound] | Δ |

Same assay, conditions: Table B2, dyes of Table B1, 50° C., 70 kJ/m^2

| Structure (SMILES) | Light fastness |
| --- | --- |
| CCC1=C(Cl)C(=O)C(NC(=O)C2CC=CCC2)=CC1=Nc1ccc(N(CC)CC)cc1C (centres unmarked) [Dye No. 5 in Table B1] | .largecircle. (less than 20% in the percentage fading) |
| CCN(CCNS(C)(=O)=O)c1ccc(N=C2C=C(NC(=O)C3CC=CC3)C(=O)C=C2NS(C)(=O)=O)c(C)c1 [Dye No. 14 in Table B1] | .largecircle. (less than 20% in the percentage fading) |
| CCN(CC)c1ccc(N=C2C=CC(=O)C(NC(=O)C3CC=CCC3)=C2)c(C)c1 (centres unmarked) [compound 23] | .largecircle. (less than 20% in the percentage fading) |
| CCN(CC)c1ccc(N=C2C=CC(=O)C(NC(=O)C3C=CCC=C3)=C2)c(NC(C)=O)c1 [Dye No. 11 in Table B1] | .largecircle. (less than 20% in the percentage fading) |
| CCOc1cc(N(CC)CC)ccc1N=C1C=CC(=O)C(NC(=O)C2C=CCCC2)=C1 (centres unmarked) [Dye No. 8 in Table B1] | .largecircle. (less than 20% in the percentage fading) |
| CCN(CCNS(C)(=O)=O)c1ccc(N=C2C=C(NC(=O)C3CC=CCC3)C(=O)C(Cl)=C2C)c(C)c1 (centres unmarked) [compound 24] | .largecircle. (less than 20% in the percentage fading) |
| CCN(CCO)c1ccc(N=C2C=C(NC(=O)C3CC=CCC3)C(=O)C(Cl)=C2C)c(C)c1 (centres unmarked) [Dye No. 2 in Table B1] | .largecircle. (less than 20% in the percentage fading) |
| CCN(c1ccccc1)c1ccc(N=C2C=C(NC(=O)C3=CCCC3)C(=O)C=C2NC(=O)NC)c(Cl)c1 [Dye No. 17 in Table B1] | .largecircle. (less than 20% in the percentage fading) |
| CCN(c1ccccc1)c1ccc(N=C2C=C(NC(=O)C3CC=CC3)C(=O)C=C2NC(=O)NC)c(Cl)c1 [Dye No. 15 in Table B1] | .largecircle. (less than 20% in the percentage fading) |
| CCN(CC)c1ccc(N=C2C=C(NC(=O)C3=CCC=CC3)C(=O)C(Cl)=C2C)cc1 [Dye No. 18 in Table B1] | .largecircle. (less than 20% in the percentage fading) |
| CCN(CC)c1ccc(N=C2C=C(NC(=O)C3=CCC=CC3)C(=O)C=C2NC(C)=O)c(C)c1 [Dye No. 20 in Table B1] | .largecircle. (less than 20% in the percentage fading) |
| CCOc1cc(N(CC)CCO)ccc1N=C1C=C(NC(=O)C2=CCCCC2)C(=O)C=C1NC(C)=O [Dye No. 9 in Table B1] | .largecircle. (less than 20% in the percentage fading) |
| CCOc1cc(N(CC)CC)ccc1N=C1C=C(NC(=O)C2CC=CCC2)C(=O)C(Cl)=C1C (centres unmarked) [Dye No. 22 in Table B1] | .largecircle. (less than 20% in the percentage fading) |

Same assay, conditions: Table B3, Comparative Examples B1-B6, 50° C., 70 kJ/m^2

| Structure (SMILES) | Light fastness |
| --- | --- |
| CC(C)Nc1ccc(NC(C)C)c2c1C(=O)c1ccccc1C2=O [Comp. Ex. A2, C.I. Disperse Blue 134, reference compound] | Δ |
| CNc1ccc(Nc2cccc(C)c2)c2c1C(=O)c1ccccc1C2=O [Comp. Ex. A3, C.I. Solvent Blue 63, reference compound] | Δ |
| CNc1ccc(NC)c2c1C(=O)c1ccccc1C2=O [Comp. Ex. A1, C.I. Disperse Blue 14, reference compound] | Δ |
| CNc1ccc(N)c2c1C(=O)c1ccccc1C2=O [Comp. Ex. A5, C.I. Disperse Violet 4, reference compound] | Δ |

Same assay, conditions: Table C2, dyes of Table C1, 50° C., 70 kJ/m^2

| Structure (SMILES) | Light fastness |
| --- | --- |
| CCC1=C(Cl)C(=O)C(NC(=O)C2CC3C=CC2C3)=CC1=Nc1ccc(N(CC)CC)cc1C (centres unmarked) [Dye No. 7 in Table C1] | .largecircle. (less than 20% in the percentage fading) |
| CCOCCN(CC)c1ccc(N=C2C=C(NC(=O)C3CC4CCC3C4)C(=O)C(Cl)=C2C)c(C)c1 (centres unmarked) [Dye No. 17 in Table C1] | .largecircle. (less than 20% in the percentage fading) |
| CCN(CC)c1ccc(N=C2C=C(NC(=O)C3CC4C=CC3O4)C(=O)C(Cl)=C2C)c(C)c1 (centres unmarked) [Dye No. 21 in Table C1] | .largecircle. (less than 20% in the percentage fading) |
| CCN(CC)c1ccc(N=C2C=C(NC(=O)C3CC4C=CC3S4)C(=O)C(Cl)=C2C)c(C)c1 (centres unmarked) [Dye No. 22 in Table C1] | .largecircle. (less than 20% in the percentage fading) |
| CCN(CC)c1ccc(N=C2C=C(NC(=O)C3CC4C=C(C)C3C4)C(=O)C(Cl)=C2C)c(C)c1 (centres unmarked) [Dye No. 18 in Table C1] | .largecircle. (less than 20% in the percentage fading) |
| CCN(CCCl)c1ccc(N=C2C=C(NC(=O)C3CC4C=CC3C4)C(=O)C(Cl)=C2C)c(NC(=O)NC)c1 (centres unmarked) [Dye No. 9 in Table C1] | .largecircle. (less than 20% in the percentage fading) |
| CCN(CC)c1ccc(N=C2C=C(NC(=O)C3CC4C=CC3C4)C(=O)C=C2NC(C)=O)c(C)c1 (centres unmarked) [Dye No. 4 in Table C1] | .largecircle. (less than 20% in the percentage fading) |
| CCN(CC)c1ccc(N=C2C=C(NC(=O)C3CC4C=CC3C4)C(=O)C(Cl)=C2C)c(C)c1 (centres unmarked) [Dye No. 1 in Table C1] | .largecircle. (less than 20% in the percentage fading) |
| CCN(CC)c1ccc(N=C2C=C(NC(=O)C3=CC4C=CC3C4)C(=O)C(Cl)=C2C)c(C)c1 (centres unmarked) [Dye No. 11 in Table C1] | .largecircle. (less than 20% in the percentage fading) |
| CCN(CC)c1ccc(N=C2C=CC(=O)C(NC(=O)C3CC4C=CC3C4)=C2)c(C)c1 (centres unmarked) [Dye No. 2 in Table C1] | .largecircle. (less than 20% in the percentage fading) |
| CCN(CCO)c1ccc(N=C2C=C(NC(=O)C3CC4C=CC3C4)C(=O)C(Cl)=C2C)c(C)c1 (centres unmarked) [Dye No. 3 in Table C1] | .largecircle. (less than 20% in the percentage fading) |
| CCN(Cc1ccccc1)c1ccc(N=C2C=C(NC(=O)C3=CC4C=CC3C4)C(=O)C=C2NC(C)=O)cc1 (centres unmarked) [Dye No. 13 in Table C1] | .largecircle. (less than 20% in the percentage fading) |
| CCN(CC)c1ccc(N=C2C=C(NC(=O)C3CC4C=C(C)C3C4)C(=O)C=C2NC(C)=O)c(C)c1 (centres unmarked) [Dye No. 20 in Table C1] | .largecircle. (less than 20% in the percentage fading) |
| CCOc1cc(N(CC)CC)ccc1N=C1C=CC(=O)C(NC(=O)C2CC3C=CC2C3)=C1 (centres unmarked) [Dye No. 5 in Table C1] | .largecircle. (less than 20% in the percentage fading) |
| CCN(CCC#N)c1ccc(N=C2C=C(NC(=O)C3=CC4C=CC3C4)C(=O)C(Cl)=C2C)c(NS(C)(=O)=O)c1 (centres unmarked) [Dye No. 14 in Table C1] | .largecircle. (less than 20% in the percentage fading) |

Same assay, conditions: Table C (C3), Comparative Examples C1-C6, 50° C., 70 kJ/m^2

| Structure (SMILES) | Light fastness |
| --- | --- |
| CC(C)Nc1ccc(NC(C)C)c2c1C(=O)c1ccccc1C2=O [Comp. Ex. A2, C.I. Disperse Blue 134, reference compound] | Δ |
| CNc1ccc(Nc2cccc(C)c2)c2c1C(=O)c1ccccc1C2=O [Comp. Ex. A3, C.I. Solvent Blue 63, reference compound] | Δ |
| CCN(CC)c1ccc(N=C2C=C(NC(=O)c3ccccc3)C(=O)C(Cl)=C2C)c(C)c1 [Comparative Example C6, reference compound] | .largecircle. (less than 20% in the percentage fading) |
| CNc1ccc(NC)c2c1C(=O)c1ccccc1C2=O [Comp. Ex. A1, C.I. Disperse Blue 14, reference compound] | Δ |
| CNc1ccc(N)c2c1C(=O)c1ccccc1C2=O [Comp. Ex. A5, C.I. Disperse Violet 4, reference compound] | Δ |
